Assays:
Assay type in all cases: in vivo, mouse
Oprm1^−/− mice = experiment: Tail-immersion test; settings: 50° C., NaBr 70 mg/kg, VU0155041 1 mg/kg, alone or combined, chronic
Description: (§1) Mice were treated with vehicle (NaCl 0.9%; ip, 10 or 20 ml/kg), NaBr (Sigma-Aldrich, Saint-Quentin Fallavier, France) administered either chronically (once a day, 10, 30, 70, 125, 250 and 500 mg/kg; i.p. or per os, in a volume of 20 ml/kg—except for combination with VU0155041: […]) or acutely (250 mg/kg, 20 ml/kg), KBr (Sigma-Aldrich, Saint-Quentin Fallavier, France; 145 mg/kg; i.p., 20 ml/kg), bumetanide (R&D systems, Minneapolis, USA, 0.5 and 2 mg/kg; i.p., 20 ml/kg) or VU0155041 (Cayman Chemicals, Ann Arbor, USA, once a day, i.p., 1 mg/kg, 10 ml/kg). […] When treatment was given chronically, behavioral testing started 8 days after beginning of daily administration. Treatment was maintained for 8 to 18 consecutive days (see timelines in FIGS. 1 and 4), allowing thorough behavioral phenotyping. On testing days, or when treatment was given acutely, drugs (or vehicle) were administered 30 min before behavioral assays.
Tail-immersion test. Nociceptive thresholds were assessed by immersing the tail of the mice (5 cm from the tip) successively into water baths at 48° C., 50° C. and 52° C. The latency to withdraw the tail was measured at each temperature, with a cutoff of 10 s.

Fmr1^−/− mice [1] = experiment: Direct social interaction test
Description: as §1
(§2) Direct social interaction test. On testing day, a pair of unfamiliar mice (not cage mates, age-, sex- and treatment-matched) was introduced in each arena for 10 min (15 lx). Each arena received a black plastic floor (transparent to infrared). […] The mean duration of nose and paw contacts was calculated from previous data (61-63).
(§3) To this purpose, we evaluated the effects of chronic NaBr administration at the dose of 250 mg/kg on autism-sensitive behaviors in these lines (FIG. 3A).

Shank3^Δex13-16−/− mice [2] = experiment: Direct social interaction test; settings: Shank3Δex13-16−/− mice
Description: as §1, §2, §3

Fmr1^−/− mice [3] = experiment: Motor stereotypies; settings: chronic NaBr 250 mg/kg once daily
Description: as §1
(§4) Motor stereotypies. To detect motor stereotypies in mutant versus wild-type animals, mice were individually placed in clear standard home cages (21×11×17 cm) filled with 3-cm deep fresh sawdust for 10 min (64). Light intensity was set at 30 lux. Trained experimenters scored numbers of head shakes, as well as rearing, burying, grooming, circling episodes and total time spent burying by direct observation.
as §3

Shank3^Δex13-16−/− mice [4] = experiment: Motor stereotypies; settings: Shank3Δex13-16−/− mice; chronic NaBr 250 mg/kg once daily
Description: as §1, §4, §3

[5] = test system: gene expression in Oprm1 null mice (NAc, CPu, VP/Tu, MeA, VTA/SNc); experiment: Real-time quantitative PCR of brain reward/social circuit regions
Description: Brains were removed and placed into a brain matrix (ASI Instruments, Warren, MI, USA). Nucleus accumbens (NAc), caudate putamen (CPu), ventral pallidum/olfactory tubercle (VP/Tu), medial nucleus of the amygdala (MeA) and ventral tegmental area/substancia nigra pars compacta (VTA/SNc) were punched out/dissected from 1 mm-thick slices (data not shown). Tissues were immediately frozen on dry ice and kept at −80° C. until use. For each structure of interest, genotype and condition, samples were processed individually (n=8). RNA was extracted and purified using the Direct-Zol RNA MiniPrep kit (Zymo research, Irvine, USA). cDNA was synthetized using the ProtoScript II Reverse Transcriptase kit (New England BioLabs, Évry-Courcouronnes, France). qRT-PCR was performed in quadruplets on a CFX384 Touch Real-Time PCR Detection System (Biorad, Marnes-la-Coquette, France) using iQ-SYBR Green supermix (Bio-Rad) kit with 0.25 μl cDNA in a 12 μl final volume in Hard-Shell Thin-Wall 384-Well Skirted PCR Plates (Bio-rad). Gene-specific primers were designed using Primer3 software to obtain a 100- to 150-bp product. Relative expression ratios were normalized to the level of actin and the 2^−ΔΔCt method was applied to evaluate differential expression level. Gene expression values differing of the mean by more than two standard deviations were considered as outliers and excluded from further calculations.
To shed light on the molecular mechanism involved in beneficial effects of chronic sodium bromide administration, we assessed the effects of a 2-week NaBr treatment on gene expression in Oprm1 null mice across five regions of the brain reward/social circuit: NAc, CPu, VP/Tu, MeA and VTA/SNc. Mice underwent a first session of social interaction after one week under treatment and a second 45 min before sacrifice for qRT-PCR experiment (data not shown). We focused primarily on genes coding for chloride transporters (Slc12a2 [NKCC1], Slc12a4, 5, 6, 7 [KCC1,2,3,4, respectively], ClCa1), GABAA receptor subunits (Gabra1, 2, 3, 4, 5, Gabrb1, 2) and glutamate receptors (Grm2, 4, 5) and subunits (Grin2a, 2b). In addition, we evaluated the expression of marker genes of neuronal expression and plasticity (Fos, Bdnf), social behavior (Oxt) and striatal projection neurons (SPNs; Crh, Drd1a, Drd2, Htr6, Pdyn, Penk).

[6] = chronic NaBr 250 mg/kg once daily
[7] = one week after interruption of NaBr 250 mg/kg

SMILES: [Br-].[Na+] [NaBr, sodium bromide]
- flicking latency (nociceptive threshold) (Oprm1^−/− mice): ineffective
- duration of nose contacts (Fmr1^−/− mice [1]; [6]): restored the duration of nose
- duration of paw contacts (Fmr1^−/− mice [1]; [6]): restored
- grooming after social contact (Fmr1^−/− mice [1]; [6]): suppressed grooming after social contact
- number of following episodes (Fmr1^−/− mice [1]; [6]): normalized the number of following episodes
- duration of paw contacts (Fmr1^−/− mice [1]; [7]): significant beneficial effects were still detected
- number of grooming episodes after a social contact (Fmr1^−/− mice [1]; [7]): significant beneficial effects were still detected
- duration of nose contacts (Shank3^Δex13-16−/− mice [2]; [6]): restored the duration of nose
- duration of paw contacts (Shank3^Δex13-16−/− mice [2]; [6]): restored
- grooming after social contact (Shank3^Δex13-16−/− mice [2]; [6]): suppressed grooming after social contact
- number of following episodes (Shank3^Δex13-16−/− mice [2]; [6]): normalized the number of following episodes
- duration of paw contacts (Shank3^Δex13-16−/− mice [2]; [7]): no effect of previous bromide treatment was longer detected
- grooming after social contact (Shank3^Δex13-16−/− mice [2]; [7]): remained efficiently suppressed
- circling episodes (Fmr1^−/− mice [3]): normalized all these parameters to WT levels
- head shakes (Fmr1^−/− mice [3]): normalized all these parameters to WT levels
- circling episodes (Shank3^Δex13-16−/− mice [4]): normalized all these parameters to WT levels
- head shakes (Shank3^Δex13-16−/− mice [4]): normalized all these parameters to WT levels
- spontaneous grooming (Shank3^Δex13-16−/− mice [4]): normalized all these parameters to WT levels
- ClCa1 transcription ([5]; CPu, mice of both genotypes, 2-week NaBr): increased ClCa1 transcription in mice of both genotypes
- Oxt expression ([5]; MeA and VTA/SNc, 2-week NaBr): induced Oxt expression in the MeA and VTA/SNc
- expression of chloride transporter genes ([5]; Oprm1−/− mice, 2-week NaBr treatment, qRT-PCR): increased the expression of all tested chloride transporters in Oprm1^−/− mice
- expression of Gabra3, Gabra4, Gabra5, Gabrg1 and Gabrb2 ([5]; Oprm1−/− mice, CPu, 2-week NaBr): consistently upregulated the expression of Gabra3, Gabra4, Gabra5, Gabrg1 and Gabrb2 in the CPu of mutant mice
- Oxt mRNA levels ([5]; Oprm1−/− mice, NAc (former) and VP/Tu (latter), 2-week NaBr): normalized by NaBr in the former and partially in the latter
- Gabra2 expression ([5]; Oprm1−/− mice, NAc and CPu (left high in VP/Tu and MeA), 2-week NaBr): stimulated the expression of Gabra2
- Slc12a5 expression ([5]; Oprm1−/− mice, NAc, CPu and MeA, 2-week NaBr): up-regulated the expression of Slc12a5 and Slc12a7
- Slc12a7 expression ([5]; Oprm1−/− mice, NAc, CPu, MeA and VP/Tu, 2-week NaBr): up-regulated the expression of Slc12a5 and Slc12a7
- Fos expression ([5]; Oprm1−/− mice, NAc, VP/Tu, CPu, 2-week NaBr): down-regulated the expression of the early gene Fos in the NAc and VP/Tu and maintained it low in the CPu
- ClCa1 mRNA levels ([5]; Oprm1−/− mice, NAc, VP/Tu, MeA, VTA/SNc, 2-week NaBr): normalized by NaBr treatment in the NAc, increased in the VP/Tu and maintained high in the MeA and VTA/SNc
- Slc12a2 expression ([5]; Oprm1−/− mice, decreased in all brain regions but the VP/Tu before treatment, 2-week NaBr): normalized under bromide treatment
- Grm4 expression ([5]; all brain regions but the VTA/SNc of Oprm1−/− mice, and NAc of wild-type controls, 2-week NaBr): upregulated the expression of Grm4
